Experimental data reported in US10011615B2, “Heterobicyclo-substituted [1,2,4]triazolo[1,5-c]quinazolin-5-amine compounds with A2A anatagonist properties” (Merck Sharp & Dohme Corp., priority 2012, dated 2018).

target: T1, human A2a receptor (Homo sapiens, UniProt P29274); experiment: A2a receptor competition binding assay using Scintillation Proximity technology; conditions: membranes from HEK293 cells expressing human A2a receptor; 0.5 nM tritiated radioligand; SPA beads; 1 h room temperature
T1 construct: purchased Perkin-Elmer RBHA2AM400UA; host or cells: HEK293 cell membranes
Summary of the method: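 Membranes of HEK293 cells expressing human A2a, pretreated with adenosine deaminase, incubated 1 h at room temperature with 0.5 nM tritiated pyrazolotriazolopyrimidine antagonist (final) and compound (3000 to 0.15 nM) on WGA SPA beads in Ca/Mg-free PBS with 10 mM MgCl2. Ki from EC50 via Cheng-Prusoff.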

T1 sequence (P29274 whole entry): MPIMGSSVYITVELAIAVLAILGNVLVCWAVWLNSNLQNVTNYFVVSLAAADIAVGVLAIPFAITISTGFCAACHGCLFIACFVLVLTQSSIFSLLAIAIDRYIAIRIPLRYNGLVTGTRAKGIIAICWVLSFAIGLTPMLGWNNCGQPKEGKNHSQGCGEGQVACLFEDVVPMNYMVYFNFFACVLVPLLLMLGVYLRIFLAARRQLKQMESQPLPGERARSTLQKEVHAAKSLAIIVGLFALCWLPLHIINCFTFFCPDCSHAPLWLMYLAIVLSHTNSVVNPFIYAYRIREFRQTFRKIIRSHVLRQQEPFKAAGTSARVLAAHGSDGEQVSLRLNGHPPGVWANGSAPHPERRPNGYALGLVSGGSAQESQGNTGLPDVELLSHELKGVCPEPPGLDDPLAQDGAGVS

Structure (SMILES)	EC50 [nM]
COc1cccc2c1nc(N)n1nc(CN3CCn4c(nnc4OC)C3)nc21 [Ex-144, 7-methoxy-2-((3-methoxy-5,6-dihydro[1,2,4]triazolo[4,3-a]pyrazin-7(8H)-yl)methyl)[1,2,4]triazolo[1,5-c]quinazolin-5-amine]	149
COc1cccc2c1nc(N)n1nc(CN3Cc4nnc(C(F)(F)F)n4C(C)(C)C3)nc21 [Ex-145, 2-((5,5-dimethyl-3-(trifluoromethyl)-5,6-dihydro-[1,2,4]triazolo[4,3-a]pyrazin-7(8H)-yl)methyl)-7-methoxy-[1,2,4]triazolo[1,5-c]quinazolin-5-amine]	47.8
COc1cccc2c1nc(N)n1nc(CN3CCn4c(C(F)(F)F)nnc4C3(C)C)nc21 [Ex-146, 2-((8,8-dimethyl-3-(trifluoromethyl)-5,6-dihydro-[1,2,4]triazolo[4,3-a]pyrazin-7(8H)-yl)methyl)-7-methoxy-[1,2,4]triazolo[1,5-c]quinazolin-5-amine]	29.9
COc1cccc2c1nc(N)n1nc(CN3CCc4c(Br)ccnc4C3)nc21 [Ex-148]	7.2
COc1cccc2c1nc(N)n1nc(CN3Cc4nc(C(C)C)sc4C3)nc21 [Ex-149, 2-((2-isopropyl-4H-pyrrolo[3,4-d]thiazol-5(6H)-yl)methyl)-7-methoxy-[1,2,4]triazolo[1,5-c]quinazolin-5-amine]	17.5
COc1cccc2c1nc(N)n1nc(CN3CCc4nccnc4C3)nc21 [Ex-150, 2-((7,8-dihydropyrido[4,3-b]pyrazin-6(5H)-yl)methyl)-7-methoxy-[1,2,4]triazolo[1,5-c]quinazolin-5-amine]	27.6
COc1cccc2c1nc(N)n1nc(CN3CCc4cncnc4C3)nc21 [Ex-151, 2-((5,6-dihydropyrido[3,4-d]pyrimidin-7(8H)-yl)methyl)-7-methoxy-[1,2,4]triazolo[1,5-c]quinazolin-5-amine]	48.2
COc1cccc2c1nc(N)n1nc(CN3Cc4cnc(C(F)(F)F)nc4C3)nc21 [Ex-152, 7-methoxy-2-((2-(trifluoromethyl)-5H-pyrrolo[3,4-d]pyrimidin-6(7H)-yl)methyl)-[1,2,4]triazolo[1,5-c]quinazolin-5-amine]	27.8
COc1cccc2c1nc(N)n1nc(CN3CCn4c(nnc4C(F)(F)F)C3)nc21 [Ex-153, 7-methoxy-2-((3-(trifluoromethyl)-5,6-dihydro[1,2,4]triazolo[4,3-a]pyrazin-7(8H)-yl)methyl)-[1,2,4]triazolo[1,5-c]quinazolin-5-amine]	284
COc1cccc2c1nc(N)n1nc(CN3CCc4cc(Br)cnc43)nc21 [Ex-155, 2-((5-bromo-2,3-dihydro-1H-pyrrolo[2,3-b]pyridin-1-yl)methyl)-7-methoxy-[1,2,4]triazolo[1,5-c]quinazolin-5-amine]	2.2
COc1cccc2c1nc(N)n1nc(CN3CCCc4ccc(C)nc43)nc21 [Ex-156]	6
COc1cccc2c1nc(N)n1nc(CN3CCCCc4cccnc43)nc21 [Ex-157, 2-((7,8-dihydro-5H-pyrido[2,3-b]azepin-9(6H)-yl)methyl)-7-methoxy-[1,2,4]triazolo[1,5-c]quinazolin-5-amine]	1.6
COc1cccc2c1nc(N)n1nc(CN3CCCCc4ccc(Cl)nc43)nc21 [Ex-160, 2-((2-chloro-7,8-dihydro-5H-pyrido[2,3-b]azepin-9(6H)-yl)methyl)-7-methoxy-[1,2,4]triazolo[1,5-c]quinazolin-5-amine]	1.5
COc1cccc2c1nc(N)n1nc(CN3CCCc4cccnc43)nc21 [Ex-161, 2-((3,4-dihydro-1,8-naphthyridin-1(2H)-yl)methyl)-7-methoxy-[1,2,4]triazolo[1,5-c]quinazolin-5-amine]	2.1
COc1cccc2c1nc(N)n1nc(CN3CCCCc4ccc(-c5ccccn5)nc43)nc21 [Ex-162, 7-methoxy-2-((2-(pyridin-2-yl)-7,8-dihydro-5H-pyrido[2,3-b]azepin-9(6H)-yl)methyl)-[1,2,4]triazolo[1,5-c]quinazolin-5-amine]	2.7
COc1cccc2c1nc(N)n1nc(CN3Cc4ccccc4C(C)(C)C3)nc21 [Ex-163, 2-((4,4-dimethyl-3,4-dihydroisoquinolin-2(1H)-yl)methyl)-7-methoxy-[1,2,4]triazolo[1,5-c]quinazolin-5-amine]	2.7
COc1cc(F)cc2c1nc(N)n1nc(CN3Cc4cccnc4C3)nc21 [Ex-164, 2-((5H-pyrrolo[3,4-b]pyridin-6(7H)-yl)methyl)-9-fluoro-7-methoxy-[1,2,4]triazolo[1,5-c]quinazolin-5-amine]	8.6
COc1cccc2c1nc(N)n1nc(CN3CCc4ccc(-c5cncnc5)cc4C3)nc21 [Ex-165, 7-methoxy-2-((7-(pyrimidin-5-yl)-3,4-dihydroisoquinolin-2(1H)-yl)methyl)-[1,2,4]triazolo[1,5-c]quinazolin-5-amine]	4.4
COc1cccc2c1nc(N)n1nc(CN3CCc4ccc(NC(=O)c5ccccn5)cc4C3)nc21 [Ex-166, N-(2-((5-amino-7-methoxy-[1,2,4]triazolo[1,5-c]quinazolin-2-yl)methyl)-1,2,3,4-tetrahydroisoquinolin-7-yl)picolinamide]	4.5
COc1cccc2c1nc(N)n1nc(CN3CCc4ccc(NC(C)=O)cc4C3)nc21 [Ex-167]	7.6

Continued, values first:

EC50 [nM]	Structure (SMILES)
4.3	COc1cccc2c1nc(N)n1nc(CN3CCc4ccc(-c5ccc(F)c(F)c5)cc4C3)nc21 [Ex-168]
6.1	COc1cccc2c1nc(N)n1nc(CCN3CCc4ccc(-c5cncnc5)cc4C3)nc21 [Ex-172, 7-methoxy-2-(2-(7-(pyrimidin-5-yl)-3,4-dihydroisoquinolin-2(1H)-yl)ethyl)-[1,2,4]triazolo[1,5-c]quinazolin-5-amine]
9.1	COc1cccc2c1nc(N)n1nc(CN3CCc4ccc(CC(=O)Nc5cccnc5)cc4C3)nc21 [Ex-173, 2-(2-((5-amino-7-methoxy-[1,2,4]triazolo[1,5-c]quinazolin-2-yl)methyl)-1,2,3,4-tetrahydroisoquinolin-7-yl)-N-(pyridine-3-yt)acetamide]
4.6	COc1cccc2c1nc(N)n1nc(CN3Cc4ccc(-c5cncnc5)cc4C3)nc21 [Ex-175]
17	COc1cccc2c1nc(N)n1nc(CN3CCc4cccc(-c5cncnc5)c4C3)nc21 [Ex-177, 7-methoxy-2-((8-(pyrimidin-5-yl)-3,4-dihydroisoquinolin-2(1H)-yl)methyl)-[1,2,4]triazolo[l,5-c]quinazolin-5-amine]
6.1	COc1cccc2c1nc(N)n1nc(CN3CCc4ccc(-c5cnc(C(F)(F)F)nc5)cc4C3)nc21 [Ex-179, 7-methoxy-2-((7-(2-(trifluoromethyl)pydmidin-5-yl)-3,4-dihydroisoquinolin-2(1H)-yl)methyl)-[1,2,4]triazolo[1,5-c]quinazolin-5-amine]
9	COc1cccc2c1nc(N)n1nc(CN3CCc4ccc(-c5cnn(C)c5)cc4C3)nc21 [Ex-180]
2.8	COc1cccc2c1nc(N)n1nc(CN3CCc4ccc(-c5cnn(C)c5C(F)(F)F)cc4C3)nc21 [Ex-182, 7-methoxy-2-((7-(1-methyl-5-(trifluoromethyl)-1H-pyrazol-4-yl)-3,4-dihydroisoquinolin-2(1H)-yl)methyl)-[1,2,4]triazolo[1,5-c]quinazolin-5-amine]
2.9	COc1cccc2c1nc(N)n1nc(CN3CCc4ccc(-c5cn(C)nc5C(F)(F)F)cc4C3)nc21 [Ex-184, 7-methoxy-2-((7-(1-methyl-3-(trifluoromethyl)-1H-pyrazol-4-yl)-3,4-dihydroisoquinolin-2(1H)-yl)methyl)-[1,2,4]triazolo[1,5-c]quinazolin-5-amine]
11.2	COc1cccc2c1nc(N)n1nc(CN3CCc4ccc(-c5ccccc5C(F)(F)F)cc4C3)nc21 [Ex-185, 7-methoxy-2-((7-(2-(trifluoromethyl)phenyl)-3,4-dihydroisoquinolin-2(1H)-yl)methyl)-[1,2,4]triazolo[1,5-c]quinazolin-5-amine]
3.9	COc1cccc2c1nc(N)n1nc(CN3CCc4ccc(-c5cnc(N)nc5C(F)(F)F)cc4C3)nc21 [Ex-186, 2-((7-(2-amino-4-(trifluoromethyl)pyrimidin-5-yl)-3,4-dihydroisoquinolin-2(1H)-yl)methyl)-7-methoxy-[1,2,4]triazolo[1,5-c]-quinazolin-5-amine]
2.9	COc1cccc2c1nc(N)n1nc(CCN3CCc4ccc(-c5cnc(C(F)(F)F)nc5)cc4C3)nc21 [Ex-187, 7-methoxy-2-(2-(7-(2-(trifluoromethyl)pyrimidin-5-yl)-3,4-dihydroisoquinolin-2(1H)-yl)ethyl)-[1,2,4]triazolo[1,5-c]quinazolin-5-amine]
8.8	Nc1nc2c(Br)cccc2c2nc(CN3CCc4cccnc4C3)nn12 [Ex-194]
16.6	Nc1nc2c(Br)cccc2c2nc(CN3Cc4cccnc4C3)nn12 [Ex-195]
274	N#Cc1cccc2c1nc(N)n1nc(CN3CCc4cccnc4C3)nc21 [Ex-196, 5-amino-2-((5,6-dihydro-1,7-naphthyridin-7(8H)-yl)methyl)[1,2,4]triazolo[1,5-c]quinazoline-7-carbonitrile]
612	N#Cc1cccc2c1nc(N)n1nc(CN3Cc4cccnc4C3)nc21 [Ex-197]
207	COCc1cccc2c1nc(N)n1nc(CN3Cc4cccnc4C3)nc21 [Ex-198, 2-((5H-Pyrrolo[3,4-b]pyridin-6(7H)-yl)methyl)-7-(methoxymethyl)-[1,2,4]triazolo[1,5-c]quinazolin-5-amine]
199	COCc1cccc2c1nc(N)n1nc(CN3CCc4cccnc4C3)nc21 [Ex-199]
35.5	Cc1cccc2c1nc(N)n1nc(CN3Cc4cccnc4C3)nc21 [Ex-200, 2-((5H-pyrrolo[3,4-b]pyridine-6(7H)-yl)methyl)-7-methyl-[1,2,4]triazolo[1,5-c]quinazolin-5-amine]
21.7	Cc1cccc2c1nc(N)n1nc(CN3CCc4cccnc4C3)nc21 [Ex-201]
147	Nc1nc2c(OCCF)cccc2c2nc(CN3CCc4cccnc4C3)nn12 [Ex-202]
